Assay results taken from US8772499B2, “TRPV3 modulators” (AbbVie Inc., priority 2011, dated 2014).
pIC50: −log10 of the molar value. Like-named read-outs stand apart in the source and are kept apart here.

Legend:
human TRPV3 = molecular target: T1, human TRPV3 (Homo sapiens, UniProt Q8NET8); assay: In vitro antagonism of recombinant human TRPV3 activation (FLIPR Tetra calcium assay); assay type: cell-based; details: HEK293 cells stably expressing human TRPV3, agonist 2-APB at 80 μM
T1 construct: expressed in transfected cells
T1 sequence (Q8NET8 1-790): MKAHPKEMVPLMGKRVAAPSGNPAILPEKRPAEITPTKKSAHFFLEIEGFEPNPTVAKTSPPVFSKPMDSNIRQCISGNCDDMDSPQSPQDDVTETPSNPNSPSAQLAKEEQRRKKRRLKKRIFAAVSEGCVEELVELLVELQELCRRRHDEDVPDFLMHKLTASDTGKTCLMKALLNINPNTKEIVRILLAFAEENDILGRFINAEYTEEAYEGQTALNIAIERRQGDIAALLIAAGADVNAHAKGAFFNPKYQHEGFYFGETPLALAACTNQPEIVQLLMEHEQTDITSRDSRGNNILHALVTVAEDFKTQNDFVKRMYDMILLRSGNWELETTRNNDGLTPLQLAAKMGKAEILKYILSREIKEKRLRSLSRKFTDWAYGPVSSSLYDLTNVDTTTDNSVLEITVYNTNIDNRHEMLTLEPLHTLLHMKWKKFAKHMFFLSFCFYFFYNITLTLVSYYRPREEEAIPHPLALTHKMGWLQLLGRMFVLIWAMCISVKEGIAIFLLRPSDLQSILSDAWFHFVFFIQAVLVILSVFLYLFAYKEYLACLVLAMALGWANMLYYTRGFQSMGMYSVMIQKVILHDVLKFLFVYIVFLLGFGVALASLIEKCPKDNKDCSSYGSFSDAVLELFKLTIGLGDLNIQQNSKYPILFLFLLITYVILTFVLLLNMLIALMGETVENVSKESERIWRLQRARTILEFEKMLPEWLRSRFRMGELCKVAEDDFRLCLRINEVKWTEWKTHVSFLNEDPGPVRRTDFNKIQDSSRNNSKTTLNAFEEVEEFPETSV
Summary of the method: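 Calcium flux read over a 10 min run: compound added at 10 s to Calcium-4-loaded human TRPV3-HEK293 cells, agonist 2-APB (80 μM, its EC80) after 3 min. IC50 derived from peak-minus-baseline signal as percentage of uninhibited 2-APB response, typically averaged over at least two runs.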

[1] = In vitro human microsomal stability assay; assay type: in vitro ADME
Summary of the method: (§1)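 Metabolic stability was followed in NADPH-supplemented incubations at 37° C., using microsomes prepared from human liver or from Sprague-Dawley rat liver.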

[2] = In vitro rat microsomal stability assay; assay type: in vitro ADME, rat (Sprague-Dawley)
Summary of the method: as §1

[3] = actual measured value shown parenthetically, in most cases average of at least two runs, read-out: IC50
[4] = reported range, read-out: IC50 (range class)
[5] = human, microsomes, 0.5 h, 0.5 μM, pH 7.4
[6] = Sprague-Dawley, rat, microsomes, 0.5 h, 0.5 μM, pH 7.4
[7] = human liver microsomes, 0.5 μM substrate, 0.25 mg/mL microsomal protein, pH 7.4, 37° C., NADPH, 30 minutes
[8] = rat liver microsomes (Sprague-Dawley), 0.5 μM substrate, 0.25 mg/mL microsomal protein, pH 7.4, 37° C., NADPH, 30 minutes

Structure (SMILES) | pIC50 (human TRPV3; [3]) | pIC50 (human TRPV3; [4]) | HUMAN MICROSOMAL STABILITY (% REMAINING AFTER 30 MINUTES) [1, 5] | RAT MICROSOMAL STABILITY (% REMAINING AFTER 30 MINUTES) [2, 6] | HUMAN MICROSOMAL STABILITY (% REMAINING AFTER 30 MINUTES) [1, 7] | RAT MICROSOMAL STABILITY (% REMAINING AFTER 30 MINUTES) [2, 8]
OC(c1ccccn1)C1(c2ccnc(C(F)(F)F)c2)CC2(C1)OCCO2 (stereo not drawn) [Example 297, pyridin-2-yl{2-[2-(trifluoromethyl)pyridin-4-yl]-5,8-dioxaspiro[3.4]oct-2-yl}methanol] | < 4.70 | < 4.70 | >85% | 2.0% |  | 
CN1CCC(c2cccc(OC(F)(F)F)c2)(C(O)c2ccccn2)CC1 (stereo not drawn) [Example 146, {1-methyl-4-[3-(trifluoromethoxy)phenyl]piperidin-4-yl}(pyridin-2-yl)-methanol] | 4.89 |  |  |  | 84% | 8.9%
Cc1ccc(C2(C(O)c3ccccn3)CCC2)cc1 (stereo not drawn) [Example 9, [1-(4-methylphenyl)cyclobutyl](pyridin-2-yl)methanol] | 5.82 |  | 0.12% | 0.18% |  | 
OC(c1ccccn1)C1(c2nc3ccc(Cl)cc3o2)CCC1 (stereo not drawn) [Example 301, [1-(6-chloro-1,3-benzoxazol-2-yl)cyclobutyl](pyridin-2-yl)methanol] | 5.22 |  | 57% | 22% |  | 
OC(c1ccccn1)C1(c2nc3ccccc3o2)CCC1 (stereo not drawn) [Example 271, [1-(1,3-benzoxazol-2-yl)cyclobutyl](pyridin-2-yl)methanol] | 5.66 |  | 62% | 8.6% |  | 
OC(c1ccccn1)C1(c2nc3ccc(F)cc3s2)CCC1 (stereo not drawn) [Example 300, [1-(6-fluoro-1,3-benzothiazol-2-yl)cyclobutyl](pyridin-2-yl)methanol] | 5.31 |  | 35% | 0.020% |  | 
OC(C1CCc2cccnc21)C1(c2ccc(C(F)(F)F)cc2)CCC1 (stereo not drawn) [Example 174, (syn)-6,7-dihydro-5H-cyclopenta[b]pyridin-7-yl{1-[4-(trifluoromethyl)-phenyl]cyclobutyl}methanol] | < 4.70 | < 4.70 | 26% | <0.01% |  | 
OC(c1ccccn1)C1(c2ccc(Cl)c(Cl)c2)COC1 (stereo not drawn) [Example 87, [3-(3,4-dichlorophenyl)oxetan-3-yl](pyridin-2-yl)methanol] | < 4.70 | < 4.70 | 47% | 8.6% |  | 
OC(c1ccccn1)C1(c2ccc(F)c(F)c2)CCCO1 (single isomer, unassigned) [Example 108, (anti)-[2-(3,4-difluorophenyl)tetrahydrofuran-2-yl](pyridin-2-yl)methanol] | 6.21 |  | 13% | 4.9% |  | 
OC(c1ccccn1)C1(c2ccccc2F)CCCO1 (stereo not drawn) [Example 103, (syn)-[2-(2-fluorophenyl)tetrahydrofuran-2-yl](pyridin-2-yl)methanol] | 5.70 |  | 73% | 0.012% |  | 
OC(C1CCCc2cccnc21)C1(c2cccc(C(F)(F)F)c2)CCC1 (single isomer, unassigned) [Example 179, (anti)-5,6,7,8-tetrahydroquinolin-8-yl{1-[3-(trifluoromethyl)phenyl]-cyclobutyl}methanol] | 5.53 |  | <0.01% | <0.01% |  | 
OC(c1ccccn1)C1(c2ccccc2F)CCCO1 (stereo not drawn) [Example 102] | < 4.70 | < 4.70 |  |  | 45% | 0.55%
OC(C1CCc2cccnc21)C1(c2ccc(OC(F)(F)F)cc2)CCC1 (stereo not drawn) [Example 176, (syn)-6,7-dihydro-5H-cyclopenta[b]pyridin-7-yl{1-[4-(trifluoromethoxy)-phenyl]cyclobutyl}methanol] | < 4.70 | < 4.70 | 20% | <0.01% |  | 
OC(c1ccccn1)C1(c2ccccc2F)CCC1 (stereo not drawn) [Example 1, [1-(2-fluorophenyl)cyclobutyl](pyridin-2-yl)methanol] | 5.82 |  | 0.38% | 0.48% |  | 
OC(C1CCCc2cccnc21)C1(c2ccc(OC(F)(F)F)cc2)CCC1 (single isomer, unassigned) [Example 178, (syn)-5,6,7,8-tetrahydroquinolin-8-yl{1-[4-(trifluoromethoxy)phenyl]-cyclobutyl}methanol] | < 4.70 | < 4.70 | 9.2% | <0.01% |  | 
OC(c1ccccn1)C1(c2ccc(F)c(Cl)c2)CC2(C1)OCCO2 (stereo not drawn) [Example 255, [2-(3-chloro-4-fluorophenyl)-5,8-dioxaspiro[3.4]oct-2-yl](pyridin-2-yl)-methanol] | 5.26 |  | 54% | <0.01% |  | 
O=C1CC(c2cncc(C(F)(F)F)c2)(C(O)c2ccccn2)C1 (stereo not drawn) [Example 295, 3-[hydroxy(pyridin-2-yl)methyl]-3-[5-(trifluoromethyl)pyridin-3-yl]-cyclobutanone] | < 4.70 | < 4.70 | 70% | 8.2% |  | 
O[C@@H](c1ccccn1)C1(c2ccc(OC(F)(F)F)cc2)CC(F)(F)C1 [Example 159, (R)-{3,3-difluoro-1-[4-(trifluoromethoxy)phenyl]cyclobutyl}(pyridin-2-yl)-methanol] | 5.70 |  | 45% | 65% |  | 
OC(c1ccccn1)C1(c2ccccn2)CCC1 (stereo not drawn) [Example 19, pyridin-2-yl(1-pyridin-2-ylcyclobutyl)methanol] | < 4.70 | < 4.70 | >85% | 76% |  | 
OC(c1ccccn1)C1(c2ccccc2OC(F)(F)F)CCNCC1 (stereo not drawn) [Example 142, pyridin-2-yl{4-[2-(trifluoromethoxy)phenyl]piperidin-4-yl}methanol] | < 4.70 | < 4.70 | >85% | 37% |  | 
OC1CC(c2ccc(C(F)(F)F)cc2)([C@H](O)c2ccccn2)C1 (mixture of isomers) [Example 166, 3-[(S)-hydroxy(pyridin-2-yl)methyl]-3-[4-(trifluoromethyl)phenyl]-cyclobutanol] | 5.23 |  | >85% | >85% |  | 
